Data: ChEMBL document CHEMBL6134869, “Silaproline-bearing nirmatrelvir derivatives are potent inhibitors of the SARS-CoV-2 main protease highlighting the value of silicon-derivatives in structure-activity-relationship studies” (Eur J Med Chem, 2025)

What was measured:
[1] = Inhibition of recombinant SARS-CoV-2 main protease using ALNDFSNSGSDVLYQPPQTSITSAVLQSGFRKMAFPS-NH2 as substrate preincubated for 15 mins followed by substrate addition and measured after 30 mins by Solid phase extraction coupled with MS analysis; parameters: species or system Severe acute respiratory syndrome coronavirus 2
SARS-CoV-2 = experiment: Antiviral activity against SARS-CoV-2 MT007544.1 infected in African green monkey Vero E6 cells pre infected with virus for 1 hrs followed by incubation with cells for 2 hrs and measured after 20 hrs by ELISPOT reader based analysis; format: functional, organism-based; conditions: Severe acute respiratory syndrome coronavirus 2, MT007544.1, Vero C1008
Vero C1008 = experiment: Cytotoxicity against African green monkey Vero E6 cells; format: toxicity, cell-based; conditions: chlorocebus sabaeus
[2] = test system: Severe acute respiratory syndrome coronavirus 2; experiment: Inhibition of recombinant SARS-CoV-2 main protease assessed as Kinact/Ki using ALNDFSNSGSDVLYQPPQTSITSAVLQSGFRKMAFPS-NH2 as substrate preincubated for 15 mins followed by substrate addition and measured after 30 mins by Solid phase extraction coupled with MS analysis; conditions: time 45.0 min

COC(=O)N[C@H](C(=O)N1C[Si](C)(C)C[C@H]1C(=O)N[C@H](C#Cc1ccccc1)C[C@@H]1CCNC1=O)C(C)(C)C
IC50 [1]: > 50000 nM | EC50 (SARS-CoV-2): > 50000 nM

C#C[C@H](C[C@@H]1CCNC1=O)NC(=O)[C@@H]1C[Si](C)(C)CN1C(=O)[C@@H](NC(=O)C(F)(F)F)C(C)(C)C
IC50 [1]: 280 nM | EC50 (SARS-CoV-2): 46000 nM

COC(=O)N[C@H](C(=O)N1C[Si](C)(C)C[C@H]1C(=O)N[C@H](C#N)C[C@@H]1CCNC1=O)C1CCCCC1
IC50 [1]: 113 nM

COC(=O)N[C@H](C(=O)N1C[Si](C)(C)C[C@H]1C(=O)N[C@H](C#N)C[C@@H]1CCNC1=O)C(C)(C)C
IC50 [1]: 59 nM | EC50 (SARS-CoV-2): > 50000 nM | Activity (Vero C1008): Non-toxic

C#C[C@H](C[C@@H]1CCNC1=O)NC(=O)[C@@H]1C[Si](C)(C)CN1C(=O)[C@@H](NC(=O)OC)C(C)(C)C
IC50 [1]: 340 nM | EC50 (SARS-CoV-2): > 50000 nM | K [2]: 3640 M⁻¹ s⁻¹

CC(C)(C)[C@H](NC(=O)C(F)(F)F)C(=O)N1C[Si](C)(C)C[C@H]1C(=O)N[C@H](C#N)C[C@@H]1CCNC1=O
IC50 [1]: 41 nM | EC50 (SARS-CoV-2): 24000 nM | Activity (Vero C1008): Non-toxic

C#C[C@H](C[C@@H]1CCNC1=O)NC(=O)[C@@H]1[C@@H]2[C@H](CN1C(=O)[C@@H](NC(=O)C(F)(F)F)C(C)(C)C)C2(C)C
K [2]: 597 M⁻¹ s⁻¹

COC(=O)N[C@H](C(=O)N1CC(C)(C)C[C@H]1C(=O)N[C@H](C#N)C[C@@H]1CCNC1=O)C(C)(C)C
IC50 [1]: 30 nM | EC50 (SARS-CoV-2): > 50000 nM | Activity (Vero C1008): Non-toxic

CC(C)(C)[C@H](NC(=O)C(F)(F)F)C(=O)N1C[C@H]2[C@@H]([C@H]1C(=O)N[C@H](C#N)C[C@@H]1CCNC1=O)C2(C)C [NIRMATRELVIR]
Activity (Vero C1008): Non-toxic

C#C[C@H](C[C@@H]1CCNC1=O)NC(=O)[C@@H]1CC(C)(C)CN1C(=O)[C@@H](NC(=O)OC)C(C)(C)C
IC50 [1]: 320 nM | EC50 (SARS-CoV-2): > 50000 nM
